{"source": "patent US20170332910A1", "about": "“MODIFIED PARAMAGNETIC NANOPARTICLES FOR TARGETED DELIVERY OF THERAPEUTICS AND METHODS THEREOF” (ALBERT EINSTEIN COLLEGE OF MEDICINE, INC., priority 2014, published 2017)", "key": {"[1]": {"experiment": "Histopathological analysis of multiple tissues (toxicity)", "assay_type": "in vivo, mouse", "details": "1 mg/kg", "method": "FIGS. 11(A-B). Systemic effect of the treatment. (A) Representative H&E staining of tissue sections from ADM-PMNP injected mice (1 mg/kg BW)(A). (B) inflammation and hyperplasia were found in colon from mice treated with free ADM (B-left) but not in mice injected with the same dose of ADM-PMNP (B-right)."}, "[2]": {"tested_on": "MDA-MB-436", "experiment": "Tumor necrosis in MDA-MB-436 xenografts", "assay_type": "in vivo, mouse", "details": "1.0 mg/kg"}, "[3]": {"tested_on": "xenografted human breast cancer", "experiment": "ADM-PMNP plus magnetic field on xenografted human breast cancer (bioluminescence)", "assay_type": "in vivo, mouse", "details": "comparable amount of free drug", "method": "FIG. 8 Anti-tumor effect of IV infused Adriamycin loaded PMNP (ADM-PMNP) plus magnetic field treatment on xenografted human breast cancer. Human breast cancer was s.c. xenografted in a female nude mouse. The mouse was injected with 1 mg/kg ADM-PMNP and the tumor was treated with magnetic field for 30 minutes following each injection The mouse was imaged before and after the treatment, the luminescent signals were quantitatively analyzed for change of tumor size. At the end of the treatment, there was a >80% decrease of luminescent signaling in the tumor. The signal recovered partially 3 days after the treatment was ended.\nSignal intensity in treated tumor was similar to that in bladder, a major route of PMNP elimination. Next, to assess drug delivery and anti-tumor efficacy, MoB-1833 mammary xenografted tumor-bearing mice were infused with ADM-coated PMNP (ADM-PMNP). ADM use in chemotherapy is limited due to systemic toxicity and it is therefore an excellent model drug for evaluation of the potentially utility of our PMNP platform. […] This ADM dose is 5-20 times lower than doses of free ADM commonly used for in animal studies and similar to doses used clinically. The 4-day treatment achieved a 9-fold reduction in tumor mass (FIG. 8). Tumor rebound upon drug termination confirmed specificity of the drug effect. […] The necrosis was confirmed histologically (FIG. 9Bd-f). […]"}, "[4]": {"tested_on": "human glioblastoma (GBM43)", "experiment": "LPS-PMNPs and oral temozolomide, survival and drug delivery", "assay_type": "in vivo, mouse", "details": "oral 20 mg/kg after LPS-PMNP with magnetic field; relative to groups 1-3", "method": "In this study, human glioblastoma (GBM43) were again maintained as subcutaneous xenografts. The tumor cells from subcutaneous xenografts were transfer to the intracranial compartment. Cells were suspended in DMEM media at 1×10^5 cells/μL for intracranial injection. 3 μL of tumor cell suspension (3×10^5 cells total) were injected into the right caudate putamen of 6 week-old female athymic mice (nu/nu). Prior to injection, the mice were anesthetized IP (intraperitoneal injection) (ketamine/xylazine). PMNPs (10 mg/kg) with and without LPS were administered via tail vein. 6 hours after administration of PMNPs, 20 mg/kg temozolomide (TMZ) was administrated as oral suspension in a vehicle containing 2.5 mg/ml Povidone K30, 0.015% citric acid, 50% Ora-Plus, 50% Ora-Sweet SF (Paddock Labs Minneapolis, Minn.) on days 12, 18, 24, and 30. The treatment groups were: 1) control (no TMZ); 2) TMZ alone; 3) LPS-PMNP plus TMZ (without magnetic field); and 4) LPS-PMNP plus TMZ with magnetic field (strong localized magnetic field applied to tumor area). The mice were euthanized as the symptoms from the increasing tumor burden prevented access to food/water."}, "[5]": {"tested_on": "U87 human glioblastoma cells", "experiment": "Cell viability assay (Presto Blue)", "assay_type": "cell-based", "details": "48 h incubation", "method": "FIG. 22 Cytotoxicity of naked curcumin, curcumin conjugated PMNPs and Sol-Gel Nps and blanks (without curcumin) performed on U87 human glioblastoma cells after 48 hours of incubation. Note that 1 μM equivalent curcumin concentration corresponds to 16.7 μg/mL of nanoparticles. […] The data represents the mean±SE, n=3 to 18.\nCells were plated in 24-well trays and allowed to become confluent then incubated with naked curcumin or different curcumin NP concentrations for 48 h. Cell viability was quantified using Presto Blue (Invitrogen) an assay that contains a cell permeable resazurin-based solution that is modified by the reducing environment of the viable cell becoming highly fluorescent. Using a plate reader, cell viability was quantified after 0.5-1 hours of incubation with Presto Blue. All measurements were always accompanied by control wells and by calibration wells to account for background fluorescence using the same culture media and the same NP concentrations without the cells.\nU-87 used as an vitro model of human glioblastoma were incubated with either Curcumin or Curcumin loaded NPs."}, "[6]": {"tested_on": "human breast cancer xenographs", "experiment": "MRI of magnetic field induced localization of gadolinium oxide based PMNPs", "assay_type": "in vivo, mouse", "method": "FIGS. 3(A-D). […] By applying a magnet field for 30 minutes at hind end (blue arrows), the enhanced image of hind-end tumor is observed (3B). The enhanced image of the tumor persists for at least several hours. […] The PMNPs are concentrated at site of a lower abdominal mammary tumor (FIG. 3C) using an external magnetic field placed over the tumor for 30 minutes. […] Imaging was performed over several hours without taking the mouse out of MRI machine thereby maintaining all of the imaging parameters.\nFIGS. 4(A-B). Compares the MRI contrast data between […] (gadopentetate dimeglumine) and gadolinium oxide-based PMNPs.\nIn FIG. 3 are presented results on magnetic immobilization of gadolinium-based PMNPs in a mouse with numerous human breast cancer xenographs. There is no image enhancement for any of the multiple tumors located in different parts of the mouse including one at hind end (green-arrow at bottom of the picture marked tumor). The mouse was then removed and then subjected to thirty minutes of having a magnetic field placed over the tumor demarked by the green arrow. […] The intensity of MRI signal is very similar at both tumor and bladder. This is very different than observed in case of […] where there is a transient image of the bladder and no site specific localization of the contrast agent in any one of the tumors. […]"}, "[7]": {"tested_on": "human glioblastoma (GBM43)", "experiment": "Effect of LPS-PMNPs on delivery of irinotecan, intracranial glioblastoma", "assay_type": "in vivo, mouse", "details": "LPS-PMNP plus magnetic field vs groups 1 and 2, 24 hours after dose on day 18", "method": "In this study, human glioblastoma (GBM43) were maintained as subcutaneous xenografts. The tumor cells from subcutaneous xenografts were transfer to the intracranial compartment. Cells were suspended in DMEM media at 1×10^5 cells/μL for intracranial injection. 3 μL of tumor cell suspension (3×10^5 cells total) were injected into the right caudate putamen of 6 week-old female athymic mice (nu/nu). Prior to injection, the mice were anesthetized IP (intraperitoneal injection) (ketamine/xylazine). 0.4 mg of irinotecan was administrated via tail vein to each mouse on day 12 after implantation of tumor cells, and repeated at days 18, 24, and 30. LPS-PMNPs were administered via tail vein 4 hours prior to administration of irinotecan. All treatment groups received treatment with irinotecan. The treatment groups were: 1) control (without LPS-PMNP treatment); 2) LPS-PMNP (LPS-PMNP treatment without magnetic field); and 3) LPS-PMNP with magnetic field (strong localized magnetic field applied to tumor area). For group 3, the strong localized magnetic field was applied to the tumor cranial area using a conical magnet. […]\nThe irinotecan content in the brain and the tumor from a mouse in each group was also determined. […] Irinotecan levels in the tumor tissues were measured from homogenized tissues in acidic methanol solution, and measured using an HPLC (eluted peaks, 380/540 nm). […]"}, "[8]": {"tested_on": "TNFα, TGBβ, MCP-1, IL-1α, IL-1β, IL-6, IL-10, and IL-12", "experiment": "Time-dependent cytokine levels (systemic inflammation)", "assay_type": "in vivo, mice", "method": "This study monitored the time-dependent changes in various cytokine levels (TNFα, TGBβ, MCP-1, IL-1α, IL-1β, IL-6, IL-10, and IL-12) for LPS-PMNPs (10 mg/kg) in mice with and without magnetic field (i.e., treatment with or without a localized magnet) as compared with free LPS introduced at 10 mg/kg and 2 mg/kg—a lower concentration than for the LPS carried on the PMNPs. The cytokine levels for each group were measured over a 24-hour period, with measurements at baseline, 1 hour, 6 hours, and 24 hours. The four comparison groups were: A) LPS-PMNP (10 mg/kg) without magnetic field; B) LPS-PMNP (10 mg/kg) with magnetic field; C) free LPS (2 mg/kg); and D) free LPS (10 mg/kg)."}}}
{"compound": "COc1cccc2c1C(=O)c1c(O)c3c(c(O)c1C2=O)C[C@@](O)(C(=O)CO)C[C@@H]3O[C@H]1C[C@H](N)[C@H](O)[C@H](C)O1", "note": "[Adriamycin, Adriamycin (doxorubicin)]", "values": [{"measurement": "histopathological findings", "setting": "[1]", "value": "colonic inflammation and hyperplasia"}, {"measurement": "tumor necrosis", "setting": "[2]", "value": "smaller necrotic lesions"}, {"measurement": "anti-tumor effect", "setting": "[3]", "value": "relatively ineffective"}]}
{"compound": "Cn1nnc2c(C(N)=O)ncn2c1=O", "note": "[TMZ, temozolomide]", "values": [{"measurement": "TMZ content in the tumor", "setting": "[4]", "value": "greater TMZ content in the tumor"}]}
{"compound": "COc1cc(/C=C/C(=O)CC(=O)/C=C/c2ccc(O)c(OC)c2)ccc1O", "note": "[curcumin, Curcumin]", "values": [{"measurement": "equivalent curcumin concentration able to significantly decrease cell viability by 20%", "setting": "[5]", "value": 5, "unit": "µM"}]}
{"compound": "CNC[C@H](O)[C@@H](O)[C@H](O)[C@H](O)CO.CNC[C@H](O)[C@@H](O)[C@H](O)[C@H](O)CO.O=C([O-])CN(CCN(CC(=O)[O-])CC(=O)O)CCN(CC(=O)[O-])CC(=O)O.[Gd+3]", "note": "[gadopentetate dimeglumine]", "values": [{"measurement": "persistence of MRI contrast", "setting": "[6]; mouse, in vivo", "value": "short lived"}, {"measurement": "distribution of contrast agent (MRI)", "setting": "[6]; within a short time, no magnetic field", "value": "concentrates in the bladder"}]}
{"compound": "CCc1c2c(nc3ccc(OC(=O)N4CCC(N5CCCCC5)CC4)cc13)-c1cc3c(c(=O)n1C2)COC(=O)[C@]3(O)CC", "note": "[irinotecan]", "values": [{"measurement": "irinotecan content in the brain", "setting": "[7]", "value": "higher"}, {"measurement": "irinotecan content in the tumor", "setting": "[7]; HPLC", "value": "significantly higher"}]}
{"compound": "lipopolysaccharides [free LPS]", "values": [{"measurement": "acute inflammation", "setting": "[8]; 2 mg/kg, compared with LPS-PMNP (10 mg/kg)", "value": "substantially greater"}, {"measurement": "inflammation over time", "setting": "[8]; 10 mg/kg", "value": "produced endotoxemia"}]}
